Where “and” joins values, the source holds several entries; their conditions need not be identical. Equal entries are not always repeated.
Experiments:
[1] = Abiotic loss in negative controls of the hepatocyte clearance assay (cell-free media, metabolically inactivated hepatocytes); type: in vitro ADME; conditions: flag for stability failure in hepatocyte clearance assay controls (1 or Fst = fail, 0 = pass)
Summary of the method: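 Test compound at 1 μM incubated at 37 °C with shaking in complete William's medium E, either cell-free or with metabolically inactivated hepatocytes, then quenched with ice-cold acetonitrile for quantitative analysis.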

[2] = Ultracentrifugation (UC) plasma protein binding assay, fraction unbound in plasma (fup); conditions: both, human, plasma
human plasma [3] = test: as above; conditions: for Fup.Med: median fraction unbound in plasma; for Fup.Med / Fup.point: UC assay Level4; for Fup.point: point estimate of fraction unbound in plasma
[4] = Chemical stability in plasma over the UC assay time course (T5hr/T1hr); conditions: both, human, plasma
Protocol: (§1) Three replicates were run per experiment, with 4NT included as a reference compound in each to evaluate assay performance. All PFAS and 4NT, prepared at a 3 mM working stock, were added to human plasma to achieve a final, thoroughly mixed assay concentration of 10 μM, incubated at 37 °C for 1 h with shaking. […] After UC, the aqueous fraction (AF; i.e., supernatant devoid of plasma proteins/lipoproteins/fatty acids) was collected and transferred to a new tube. The second aliquot maintained at 37 °C was collected (T5hr). At the relevant time points, each volume of sample was combined with 3 volumes of vigorously mixed ice-cold acetonitrile with the labeled IS and stored for 10 min at −20 °C prior to centrifugation at 12,000× g for 10 min at 4 °C. The supernatant was collected and stored at <−70 °C until quantitative analysis. […] Furthermore, chemical stability in plasma over the assay time course was assessed using the T1hr and T5hr samples.
(§2) Percent chemical remaining at the end of the UC assay (T5hr/T1hr) was used to remove unstable chemicals from further evaluation.

human plasma [5] = test: as above; conditions: for PPB_Stab_Fail: flag for stability failure in the plasma protein binding assay (1 = fail, 0 = pass); for Fstable.Med: median fraction stable in plasma, UC assay Level4
Protocol: as §1, §2

Structure (SMILES)	Hep_Stab_Fail [1]	fraction unbound at 5 h, 10 μM ([2]; Mean fu, fraction unbound in human plasma, ultracentrifugation, some values based on eLOQ)	Fup.Med (human plasma [3])	Fup.point (human plasma [3])	remaining at 5 h, 10 μM [4]	PPB_Stab_Fail (human plasma [5])	Fstable.Med (human plasma [5])	fraction unbound at 5 h, 10 μM ([2]; Fraction Unbound (fu), Run-specific Avg, average of one UC run (run date in line above))	fraction unbound at 5 h, 10 μM ([2]; Fraction Unbound (fu), replicates A, B, C, single replicate of one UC run (aqueous fraction / Time 5 hr))	fup (human plasma [3]; human plasma, 10 μM, ultracentrifugation, 37 °C)	Fraction Unbound (fu), replicates A, B, C (human plasma [3]; single replicate of one UC run (aqueous fraction / Time 5 hr))	Stability (T5hr/ T1hr), Run-specific Avg (human plasma [5]; average of one UC run (run date in line above))	Mean Stability (human plasma [5]; mean T5hr/T1hr ratio over all replicates and runs, plasma)	Stability (T5hr/ T1hr), replicates A, B, C (human plasma [5]; single replicate of one UC run)
FC(F)C(F)(F)COCC1CO1 (centres unmarked) [((2,2,3,3-Tetrafluoropropoxy)methyl)oxirane]	1	0.841	0.63	0.762	66%	0	0.531	–	–	–	–	–	–	–
NC(O)(C(F)(F)F)C(F)(F)F [2-Aminohexafluoropropan-2-ol]	1	–	0.867	0.963	76%	0	0.225	0.993	1	1	0.90 and 0.77 and 0.85	0.77 and 0.751	0.76	0.60 and 0.78 and 0.93 and 0.61 and 0.77 and 0.88

— article PMC10223284, “Category-Based Toxicokinetic Evaluations of Data-Poor Per- and Polyfluoroalkyl Substances (PFAS) using Gas Chromatography Coupled with Mass Spectrometry” (Toxics, 2023)
